From paper PMC12116762, “Topobexin targets the Topoisomerase II ATPase domain for beta isoform-selective inhibition and anthracycline cardioprotection” (Nature Communications, 2025)
Several values for one entry are separate records, joined by “and”; a condition that tells them apart may be missing. Equal values may be shown once.

Tests used:
Aqueous solubility = type: physicochemical; details: limited evaluation to ≤ 10 μM
YFP-TOP2B = biological target: T1, YFP-TOP2B (Homo sapiens, UniProt Q02880); experiment: FRAP analysis, YFP-TOP2B in HEK293F cells; type: cell-based; details: 0.25 and 1 μM
T1 construct: Using recombinant full-length human TOP2A and TOP2B enzymes; expressed in transfected cells; host or cells: HEK293F
Experimental: (§1) HEK293F cells were transfected with DNA plasmids encoding yellow-fluorescent protein (YFP)-TOP2A or YFP-TOP2B (the same DNA constructs for mammalian protein expression and purification) using Lipofectamine 2000 (Thermo Fisher Scientific). Cells were cultured for 24 h post transfection and YFP signals were confirmed prior to FRAP experiments. Transfected cells were plated on glass-bottomed culture dishes (Matsunami) and rested overnight. The next day, each dish was pre-incubated with the indicated inhibitor treatment or DMSO control for 15 min prior to FRAP experiment. Each set of experiments was repeated on at least two different days using newly transfected cells each time. Live-cell imaging was done using a LSM 980 microscope (Carl Zeiss Microscopy, LLC). YFP signal was excited at 508 nm at 2% laser power and detected through a 516–604 nm range. A small area within the nucleus (purple box) is manually selected for fluorescence bleaching at 100% laser power for 50 iterations. Inhibition of TOP2 by obex inhibitors was detected by impairment in fluorescence recovery at 15 s post bleaching, as a lack of inhibition allows for TOP2 diffusion throughout the nucleus.

YFP-TOP2A = biological target: T2, YFP-TOP2A (Homo sapiens, UniProt P11388); experiment: FRAP analysis, YFP-TOP2A in HEK293F cells; type: cell-based; details: 0.25 and 1 μM
T2 construct: Using recombinant full-length human TOP2A and TOP2B enzymes; expressed in transfected cells; host or cells: HEK293F
T2 sequence (P11388 whole entry): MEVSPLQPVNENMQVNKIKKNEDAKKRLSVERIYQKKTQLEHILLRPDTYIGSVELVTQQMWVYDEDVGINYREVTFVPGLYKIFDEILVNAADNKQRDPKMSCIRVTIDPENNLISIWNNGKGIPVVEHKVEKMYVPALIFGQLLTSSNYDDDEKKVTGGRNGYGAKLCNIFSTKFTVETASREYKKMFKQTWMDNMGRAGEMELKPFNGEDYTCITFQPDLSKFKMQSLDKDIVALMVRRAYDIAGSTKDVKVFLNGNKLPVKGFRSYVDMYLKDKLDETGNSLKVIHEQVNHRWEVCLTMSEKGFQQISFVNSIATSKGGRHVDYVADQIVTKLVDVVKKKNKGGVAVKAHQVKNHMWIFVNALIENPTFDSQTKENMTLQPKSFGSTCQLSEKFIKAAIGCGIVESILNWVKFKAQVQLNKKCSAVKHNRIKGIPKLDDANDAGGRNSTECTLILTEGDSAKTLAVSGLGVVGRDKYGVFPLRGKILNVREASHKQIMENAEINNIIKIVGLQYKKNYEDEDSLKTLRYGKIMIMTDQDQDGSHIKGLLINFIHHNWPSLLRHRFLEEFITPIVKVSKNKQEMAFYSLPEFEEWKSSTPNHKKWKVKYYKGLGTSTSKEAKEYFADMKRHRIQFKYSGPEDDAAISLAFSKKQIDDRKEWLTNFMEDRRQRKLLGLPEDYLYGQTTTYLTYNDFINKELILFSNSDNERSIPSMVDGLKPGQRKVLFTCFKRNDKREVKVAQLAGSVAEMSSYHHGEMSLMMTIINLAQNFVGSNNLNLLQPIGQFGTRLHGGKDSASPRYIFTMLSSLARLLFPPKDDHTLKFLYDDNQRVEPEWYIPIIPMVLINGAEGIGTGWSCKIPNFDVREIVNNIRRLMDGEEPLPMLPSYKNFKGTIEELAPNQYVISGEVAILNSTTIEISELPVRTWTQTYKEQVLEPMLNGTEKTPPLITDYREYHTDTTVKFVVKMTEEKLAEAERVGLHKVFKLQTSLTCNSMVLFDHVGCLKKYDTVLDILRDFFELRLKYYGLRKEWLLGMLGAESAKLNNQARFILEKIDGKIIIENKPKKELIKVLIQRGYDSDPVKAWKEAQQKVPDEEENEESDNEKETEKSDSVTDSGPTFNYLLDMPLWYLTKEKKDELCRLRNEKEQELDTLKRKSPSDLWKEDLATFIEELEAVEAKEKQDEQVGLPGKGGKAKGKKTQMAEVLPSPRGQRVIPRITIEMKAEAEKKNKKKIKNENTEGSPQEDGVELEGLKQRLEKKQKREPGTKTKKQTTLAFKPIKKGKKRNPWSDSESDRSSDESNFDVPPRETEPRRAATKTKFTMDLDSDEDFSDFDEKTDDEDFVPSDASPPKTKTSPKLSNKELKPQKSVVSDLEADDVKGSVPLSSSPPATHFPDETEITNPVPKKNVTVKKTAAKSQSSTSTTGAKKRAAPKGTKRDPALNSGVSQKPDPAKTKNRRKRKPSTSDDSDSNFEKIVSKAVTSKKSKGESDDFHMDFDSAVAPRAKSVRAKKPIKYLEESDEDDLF
Experimental: as §1

[1] = biological target: T3, TOP2B-DNA covalent complex (Homo sapiens, UniProt Q02880); experiment: RADAR assay, etoposide-induced TOP2B-DNA covalent complex in HEK293F cells; type: cell-based; details: for TOP2B spot intensity: independent replicates
T3 construct: endogenous in cells; host or cells: HEK293F
T3 sequence (Q02880 2-1626 limits assumed, one chain of several): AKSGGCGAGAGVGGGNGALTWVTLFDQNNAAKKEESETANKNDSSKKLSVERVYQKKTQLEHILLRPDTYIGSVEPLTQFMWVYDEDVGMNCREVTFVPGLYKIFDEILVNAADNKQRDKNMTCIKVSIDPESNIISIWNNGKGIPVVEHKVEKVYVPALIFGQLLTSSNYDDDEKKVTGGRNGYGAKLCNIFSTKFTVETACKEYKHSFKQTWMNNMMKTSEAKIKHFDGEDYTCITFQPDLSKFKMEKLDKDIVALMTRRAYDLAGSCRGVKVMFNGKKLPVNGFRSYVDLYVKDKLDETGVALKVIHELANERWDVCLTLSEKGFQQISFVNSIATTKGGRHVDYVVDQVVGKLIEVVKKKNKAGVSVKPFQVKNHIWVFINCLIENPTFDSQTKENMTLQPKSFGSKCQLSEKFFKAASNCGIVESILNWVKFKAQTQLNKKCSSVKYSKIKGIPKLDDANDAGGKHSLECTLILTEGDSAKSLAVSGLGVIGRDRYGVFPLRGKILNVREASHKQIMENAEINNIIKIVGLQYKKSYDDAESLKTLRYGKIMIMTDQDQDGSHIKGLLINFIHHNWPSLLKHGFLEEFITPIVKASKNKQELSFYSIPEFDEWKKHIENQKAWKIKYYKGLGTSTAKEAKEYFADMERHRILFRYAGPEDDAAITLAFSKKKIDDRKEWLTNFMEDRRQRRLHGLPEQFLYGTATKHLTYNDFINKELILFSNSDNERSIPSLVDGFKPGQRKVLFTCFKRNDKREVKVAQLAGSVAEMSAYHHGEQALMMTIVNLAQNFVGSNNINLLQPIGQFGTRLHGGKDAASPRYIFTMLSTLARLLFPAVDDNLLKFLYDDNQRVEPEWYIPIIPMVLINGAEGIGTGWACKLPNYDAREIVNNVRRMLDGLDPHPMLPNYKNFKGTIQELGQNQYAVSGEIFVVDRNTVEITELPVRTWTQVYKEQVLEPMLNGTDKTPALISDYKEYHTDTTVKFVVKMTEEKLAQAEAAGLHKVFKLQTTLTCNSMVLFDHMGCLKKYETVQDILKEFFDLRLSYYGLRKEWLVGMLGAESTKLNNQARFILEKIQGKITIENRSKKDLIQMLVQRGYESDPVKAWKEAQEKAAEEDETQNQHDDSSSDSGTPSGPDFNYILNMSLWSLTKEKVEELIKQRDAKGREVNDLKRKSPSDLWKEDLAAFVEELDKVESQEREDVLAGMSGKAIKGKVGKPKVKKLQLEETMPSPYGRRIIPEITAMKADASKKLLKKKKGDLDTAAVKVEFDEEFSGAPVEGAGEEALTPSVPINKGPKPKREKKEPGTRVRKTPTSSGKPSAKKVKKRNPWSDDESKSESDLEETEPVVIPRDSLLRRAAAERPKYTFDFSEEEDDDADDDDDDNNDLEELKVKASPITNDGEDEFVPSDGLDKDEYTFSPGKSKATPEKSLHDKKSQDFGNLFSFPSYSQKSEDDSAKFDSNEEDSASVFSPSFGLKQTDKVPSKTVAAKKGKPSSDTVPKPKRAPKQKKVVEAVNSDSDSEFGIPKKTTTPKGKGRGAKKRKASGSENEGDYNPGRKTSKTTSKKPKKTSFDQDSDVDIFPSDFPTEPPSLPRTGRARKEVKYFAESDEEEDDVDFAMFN
Experimental: HEK293F cells were plated at 3 × 10^5 cells per well and grown overnight. […] Upon removal of media, cells in each well were immediately lysed with 750 µL DNAzol (Molecular Research Center, Inc.) and the DNA was precipitated by addition of 375 µL of 100% ethanol. This step was then repeated to eliminate protein aggregates. Precipitate from each sample was pelleted via centrifugation at 4 °C and max speed for 5 min. The pellets were washed twice with buffer containing 20 mM Tris pH 7.5, 1 mM EDTA pH 8.0, 50 mM NaCl, 50% EtOH, and at the end of each wash, centrifugation at 4000 × g for 2 min was repeated to isolate the DNA pellets. The pellets were washed in 75% EtOH and then collected by centrifugation at 4 °C and max speed for 5 min. The supernatant was removed via pipetting, and the remaining pellets were air dried for 5 min before 50 µL 8 mM NaOH and 0.1% Tween-20 was added to each pellet. Once no visible precipitate remained, each mixture was supplemented with 5 µL of Benzonase buffer containing 500 mM Tris pH 8.0, 10 mM MgCl2, 1/1000 Roche complete protease inhibitor cocktail (Millipore Sigma) and 40 units Benzonase (Millipore Sigma) followed by 30 to 60 min incubation at 37 °C until the pellets were fully dissolved. The DNA content from each sample was quantified on a nanodrop, and 10 µg of DNA was diluted to a final volume of 200 µL in 8 mM NaOH and 0.1% Tween. The samples were applied over the Whatman Minifold I dot blot apparatus (Cytiva) and collected on a PVDF membrane (Thermo Fisher Scientific). The membrane was washed three times with 8 mM NaOH and 0.1% Tween-20 solution prior to removal and blocking with the same wash solution containing 1 mg/mL BSA. Western blotting was carried out on an iBind (Thermo Fisher Scientific) and TOP2 proteins were detected using isoform-specific antibody against full length TOP2A (1:250 dilution; HT2A21, Inspiralis) and TOP2B (1:500 dilution; 611493, BD Biosciences) and visualized with anti-rabbit (1:1000 dilution; 926-68071, LI-COR Bio) and anti-mouse (1:1000 dilution; 926-32210, LI-COR Bio) secondary antibodies in iBind running buffer. The blots were imaged on a LI-COR Odyssey Fc and analysed using ImageStudio. Each presented data point was obtained from distinct sample.

TOP2B = biological target: T4, TOP2B (Rattus norvegicus, UniProt A0A8I5Y7L4); experiment: TOP2B protein levels in NVCM (Western blotting); type: cell-based; details: for TOP2B protein level: independent replicates
T4 construct: endogenous in cells; host or cells: primary neonatal Wistar rat ventricular cardiomyocytes (NVCM)
T4 sequence (A0A8I5Y7L4 1-1614): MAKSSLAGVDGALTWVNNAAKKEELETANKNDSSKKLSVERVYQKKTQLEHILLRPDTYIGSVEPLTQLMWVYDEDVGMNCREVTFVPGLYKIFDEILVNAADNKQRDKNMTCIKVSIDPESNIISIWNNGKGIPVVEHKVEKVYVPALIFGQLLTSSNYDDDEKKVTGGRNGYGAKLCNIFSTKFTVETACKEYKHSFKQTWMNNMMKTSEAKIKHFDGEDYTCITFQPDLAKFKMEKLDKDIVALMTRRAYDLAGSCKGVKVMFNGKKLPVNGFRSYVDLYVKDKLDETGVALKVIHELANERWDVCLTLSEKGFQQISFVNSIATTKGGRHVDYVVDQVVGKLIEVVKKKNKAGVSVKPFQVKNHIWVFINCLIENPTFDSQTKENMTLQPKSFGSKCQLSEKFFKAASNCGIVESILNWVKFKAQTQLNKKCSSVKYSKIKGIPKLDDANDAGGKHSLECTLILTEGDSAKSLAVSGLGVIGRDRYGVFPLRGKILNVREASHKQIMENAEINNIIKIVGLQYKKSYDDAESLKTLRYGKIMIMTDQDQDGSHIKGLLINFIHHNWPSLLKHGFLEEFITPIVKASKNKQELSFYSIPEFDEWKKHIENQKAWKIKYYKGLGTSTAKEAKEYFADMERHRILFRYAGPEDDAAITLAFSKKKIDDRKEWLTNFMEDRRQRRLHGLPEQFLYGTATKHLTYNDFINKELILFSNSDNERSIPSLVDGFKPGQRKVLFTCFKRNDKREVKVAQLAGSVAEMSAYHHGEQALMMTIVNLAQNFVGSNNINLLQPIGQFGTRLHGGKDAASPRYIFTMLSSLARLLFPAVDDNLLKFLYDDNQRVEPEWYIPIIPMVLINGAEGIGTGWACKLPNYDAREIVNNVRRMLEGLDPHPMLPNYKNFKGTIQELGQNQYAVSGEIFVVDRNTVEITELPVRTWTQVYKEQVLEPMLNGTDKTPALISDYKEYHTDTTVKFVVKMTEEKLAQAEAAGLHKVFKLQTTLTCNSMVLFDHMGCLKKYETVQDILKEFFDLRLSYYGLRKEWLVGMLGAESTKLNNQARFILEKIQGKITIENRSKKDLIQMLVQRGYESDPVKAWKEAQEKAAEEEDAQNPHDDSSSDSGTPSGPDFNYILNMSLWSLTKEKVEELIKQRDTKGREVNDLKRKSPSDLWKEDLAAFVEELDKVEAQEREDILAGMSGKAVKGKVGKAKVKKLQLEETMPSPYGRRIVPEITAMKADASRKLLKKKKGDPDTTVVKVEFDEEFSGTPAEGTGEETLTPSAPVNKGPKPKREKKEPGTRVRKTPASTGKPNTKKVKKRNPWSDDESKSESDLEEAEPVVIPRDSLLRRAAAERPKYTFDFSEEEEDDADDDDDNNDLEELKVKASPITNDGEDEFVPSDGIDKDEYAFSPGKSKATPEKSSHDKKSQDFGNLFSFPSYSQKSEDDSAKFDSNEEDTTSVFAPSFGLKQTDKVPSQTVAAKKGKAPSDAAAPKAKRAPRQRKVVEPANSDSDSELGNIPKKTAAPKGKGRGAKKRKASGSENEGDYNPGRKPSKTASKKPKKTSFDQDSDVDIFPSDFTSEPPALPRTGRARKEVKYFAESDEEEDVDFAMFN
Experimental: TOP2B and γH2AX levels in NVCM were determined as follows. After incubation, 4 × 10^5 rat neonatal cardiomyocytes were lysed with 75 µL of 2% SDS in 0.1 M Tris (pH 7.4) and boiled at 95 °C for 5 min. The protein content of each sample was determined by the BCA method and 10 μg of total protein were loaded onto a polyacrylamide gel (7.5% for TOP2B, 12% for γH2AX, Bio-Rad TGX stain-free gels). After approximately 75 min of electrophoresis (150 V, Bio-Rad Mini-PROTEAN Tetra Cell), the gels were transblotted onto nitrocellulose membranes using a semi-dry method in Transblot Turbo (Bio-Rad, USA). The next day, the membranes were blocked for 1 h in 5% skimmed milk powder in 0.05% TBS-T at room temperature (RT). For TOP2 analysis, membranes were incubated with rabbit anti-TOP2A/B (1:2,000, ab109524, Abcam, UK) in 1% BSA in PBS for 1 h at RT, washed 6 times for 5 min in 0.05% TBS-T and then incubated with HRP-labeled F(ab’)2 goat anti-rabbit IgG (1:10,000, ab6112, Abcam, UK) in 0.05% TBS-T for 1 h RT and washed again (6 × 5 min in 0.05% TBS-T). For γH2AX analysis, membranes were incubated with mouse anti-γH2AX (1:5,000; ab26350, Abcam, UK) in 5% BSA in PBS for 1 h at RT, washed with 0.05% PBS-T for 6 × 5 min, incubated with HRP-conjugated anti-mouse IgG (1:40,000; A9044 Sigma Aldrich, USA) in 5% BSA in PBS for 1 h RT and finally washed with 0.05% PBS-T for 6 times 5 min. Target proteins were visualized using a chemiluminescent detection substrate (Clarity Western ECL Substrate, Bio-Rad, USA) and a Gel Doc EZ with Image Lab software (Bio-Rad, USA). Full, uncropped images of all blots present in the manuscript figures are included in the source data file.
Densitometric quantification was performed using Image Lab software (Bio-Rad). Stain-free technology was used to visualize the total protein on the gel and normalize the total protein amount in each line. Each presented data point was obtained from distinct sample.

| SMILES | solubility in aqueous environment (Aqueous solubility) | recovery of fluorescence for TOP2B in photobleached area (YFP-TOP2B) | mobility of TOP2A (FRAP) (YFP-TOP2A) | TOP2B spot intensity ([1]; Cmpd 9 0.1 μM + etoposide 5 μM) | TOP2B spot intensity ([1]; Cmpd 9 1 μM + etoposide 5 μM) | TOP2B spot intensity ([1]; Cmpd 9 10 μM + etoposide 5 μM) | TOP2B spot intensity ([1]; Cmpd 9 10 μM, etoposide 0, background subtracted) | concentration significantly reducing TOP2B-DNA CC ([1]; etoposide-induced, HEK293F) | TOP2B protein levels in NVCM (TOP2B) | TOP2B protein level, mean (TOP2B; 0.1 µM, ctr mean 100) | TOP2B protein level (TOP2B; 0.1 µM, ctr mean 100) | TOP2B protein level, mean (TOP2B; 1 µM) | TOP2B protein level (TOP2B; 1 μM) | TOP2B protein level, mean (TOP2B; 10 µM) | TOP2B protein level (TOP2B; 10 µM) |
| --- | --- | --- | --- | --- | --- | --- | --- | --- | --- | --- | --- | --- | --- | --- | --- |
| CCCc1cc(=O)oc2c(C(=O)N3CCCc4ccccc43)c(OC)cc(OC)c12 [BNS-22] | poor solubility in aqueous environment |  |  |  |  |  |  |  |  |  |  |  |  |  |  |
| CCCc1cc(=O)oc2c(C(=O)N3CCCc4ccccc43)c(OCCN3CCN(C)CC3)ccc12 [topobexin (9)] |  | impaired | not affected | 104.7 and 108 and 35.48 and 44.18 and 86.39 | 30.03 and 46.96 and 8.418 and 33.86 and 32.47 | 9.497 and 0.7143 and 3.351 and 13.57 and 7.34 | 0.7839 and 1.705 and 2.435 and 8.291 and 6.459 | 1 µM | potent and concentration-dependent depletion | 23.4137 | 11.507 and 22.9519 and 35.7822 | 1.8687 | 0.3883 and 3.978 and 1.24 | 0.6098 | 0.07384 and 0.9813 and 0.7742 |
